Test results: patent US12643912B2, “Macrocyclic compounds, a process for their preparation and pharmaceutical compositions containing them” (LES LABORATOIRES SERVIER, priority 2020, dated 2026)

test system: Nrf2 (Keap1-NRF2 nuclear translocation); experiment: U2OS translocation assay (PathHunter U2OS Keap1-NRF2 Nuclear Translocation Cell Line); assay type: cell-based; details: Homo sapiens, U2OS, 3 h, read-out: CELLULAR U2OS EC50 (nM), U2OS Keap1-NRF2 nuclear translocation cells, 3 h incubation, luminescence, normalized between 1% DMSO and 10 μM andrographolide
Protocol: EXAMPLE 84: U2OS—TRANSLOCATION ASSAY
U2OS cell have been stably transduced using MMLV-derived retroviral vector, to overexpress Nrf2-Enzyme Donor fusion protein, and Acceptor Enzyme in the nucleus (PathHunter® U2OS Keap1-NRF2 Nuclear Translocation Cell Line, Ref.93-0821C3, DiscoverX).
PathHunter U2OS cells were grown in Minimum Essential Medium (MEM) (Ref.30-2003, ATCC), 10% FBS (Ref.P30-193306, PanBiotech), 500 μg/ml Geneticine, 250 μg/ml hygromycine, 0.25 μg/ml puromycine (10131-027, 10687-010 and Ref.A1113802 respectively, Life Technologies).
The night before experiment, cells were harvested using Tryple Xpress (Ref.126905, Bibco) for 5 min at 37° C., resuspended in Opti-MEM™ (Ref.31985-047, Gibco), 1% FBS (Ref.P30-193306, PanBiotech) and then plated into 384 wells plates (Ref.6007680, Perkin Elmer) at the density of 7 500 cells/well in 20 μl. Cell are stored over night at 37° C., 5% CO2 until used. Compounds in 100% DMSO (0.315 μl/well) were resuspended in 20 μl MEM, 1% FBS, 3.4% DMSO. Compounds and andrographolide (10 μM final concentration; Ref.365645-500MG, Aldrich)) as positive control, were dispensed on cell, 5 μl /well, and then incubated for 3 h at 37° C. and 5% CO2. After incubation, Path hunter reagents were dispensed on cells (12 μl /well, Ref.93-0001, DiscoverX) and incubated for 60 min at room temperature in the dark.
Then, luminescence signal was measured using multimodal reader (Pherastar, BMG Labtech). Data were normalized between 1% DMSO (basal signal) and 10 μM andrographolide (positive signal) and analyzed using Activity Base software.

Compound | EC50
Cc1ccc2cc1CN1Cc3cc(c(Cl)cc3OS1(=O)=O)OCCOCCn1nnc3c(C)c(ccc31)C2CC(=O)O (stereo not shown) [Example 75, [24-Chloro-4,32-dimethyl-28,28-dioxo-19,22,27-trioxa-28λ^6-thia-1,14,15,16-tetraazahexacyclo[21.5.3.1^3,70.1^9,130.0^12,160.0^26,30]tritriaconta-3(33),4,6,9(32),10,12,14,23,25,30-decaen-8-yl]acetic acid] | 59.6 nM
Cc1ccc2cc1CN1Cc3cc(ccc3OS1(=O)=O)OCCCCn1nnc3c(C)c(ccc31)[C@H]2CC(=O)Nc1cncnc1 [Example 79b, 2-[(8S)-4,31-dimethyl-27,27-dioxo-21,26-dioxa-27λ^6-thia-1,14,15,16-tetraazahexacyclo[20.5.3.1^3,70.1^9,130.0^12,160.0^25,29]dotriaconta-3(32),4,6,9(31),10,12,14,22,24,29-decaen-8-yl]-N-(pyrimidin-5-yl)acetamide] | 296 nM
Cc1ccc2cc1CN1Cc3cc(ccc3OS1(=O)=O)OCCCCn1nnc3c(C)c(ccc31)[C@@H]2CC(=O)Nc1cccnc1 [Example 80b, 2-[(8R)-4,31-dimethyl-27,27-dioxo-21,26-dioxa-27λ^6-thia-1,14,15,16-tetraazahexacyclo[20.5.3.1^3,70.1^9,130.0^12,160.0^25,29]dotriaconta-3(32),4,6,9(31),10,12,14,22,24,29-decaen-8-yl]-N-(pyridin-3-yl)acetamide] | 2700 nM
COc1ccc2cc1CN1Cc3cc(ccc3OS1(=O)=O)OCCN(C)CCCCn1nnc3c(C)c(ccc31)C2CC(=O)O (stereo not shown) [Example 47] | 288 nM
Cc1ccc2cc1CN1Cc3cc(ccc3OS1(=O)=O)Oc1ccccc1NCCCn1nnc3c(C)c(ccc31)C2CC(=O)O (stereo not shown) [Example 71b, [4,37-Dimethyl-33,33-dioxo-27,32-dioxa-33λ^6-thia-1,14,15,16,20-pentaazaheptacyclo[26.5.3.1^3,70.1^9,130.0^12,160.0^21,260.0^31,35]octatriaconta-3(38),4,6,9(37),10,12,14,21,23,25,28,30,35-tridecaen-8-yl]acetic acid] | 570 nM
Cc1ccc2cc1[C@@H](C)N1Cc3cc(cc(C)c3OS1(=O)=O)OCCCCn1nnc3c(C)c(ccc31)[C@H]2CC(=O)O [Example 29b, [(2R,8S)-2,4,24,31-tetramethyl-27,27-dioxo-21,26-dioxa-27λ^6-thia-1,14,15,16-tetraazahexacyclo[20.5.3.1^3,70.1^9,130.0^12,160.0^25,29]dotriaconta-3(32),4,6,9(31),10,12,14,22,24,29-decaen-8-yl]acetic acid] | 68.4 nM
COc1ccc2cc1[C@@H](C)N1Cc3cc(ccc3OS1(=O)=O)OCCCCCn1nnc3c(C)c(ccc31)[C@H]2CC(=O)O [Example 31b, [(2R,8S)-4-methoxy-2,32-dimethyl-28,28-dioxo-22,27-dioxa-28λ^6-thia-1,14,15,16-tetraazahexacyclo[21.5.3.1^3,70.1^9,130.0^12,160.0^26,30]tritriaconta-3(33),4,6,9(32),10,12,14,23,25,30-decaen-8-yl]acetic acid] | 27.4 nM
COc1ccc2cc1[C@@H](C)N1Cc3cc(ccc3OS1(=O)=O)OCCOCCn1nnc3c(C)c(ccc31)[C@H]2CC(=O)O [Example 41a] | 716 nM
Cc1ccc2cc1[C@@H](C)N1Cc3cc(ccc3OS1(=O)=O)OC[C@@H](O)CCn1nnc3c(C)c(ccc31)[C@H]2CC(=O)O [Example 46a, [(2R,8RS,19S)-19-Hydroxy-2,4,31-trimethyl-27,27-dioxo-21,26-dioxa-27λ^6-thia-1,14,15,16-tetraazahexacyclo[20.5.3.1^3,70.1^9,130.0^12,160.0^25,29]dotriaconta-3(32),4,6,9(31),10,12,14,22,24,29-decaen-8-yl]acetic acid] | 228 nM
COc1ccc2cc1[C@H](C)N1Cc3cc(ccc3OS1(=O)=O)OCCCCCn1nnc3c(C)c(ccc31)[C@H]2CC(=O)O [Example 31a, [(2S,8S)-4-methoxy-2,32-dimethyl-28,28-dioxo-22,27-dioxa-28λ^6-thia-1,14,15,16-tetraazahexacyclo[21.5.3.1^3,70.1^9,130.0^12,160.0^26,30]tritriaconta-3(33),4,6,9(32),10,12,14,23,25,30-decaen-8-yl]acetic acid] | 1430 nM
COc1ccc2cc1[C@@H](C)N1Cc3cc(ccc3OS1(=O)=O)OCCOCCn1nnc3c(C)c(ccc31)[C@@H]2CC(=O)O [Example 41b] | > 3160 nM

same assay, conditions: read-out: CELLULAR U2OS EC50; U2OS Keap1-NRF2 nuclear translocation cells, 3 h incubation, luminescence, normalized between 1% DMSO and 10 μM andrographolide

Compound | EC50
Cc1ccc2cc1CN1Cc3cc(ccc3OS1(=O)=O)OCCCCn1nnc3c(C)c(ccc31)C2C(C)(C)C(=O)Nc1cccnc1 (single isomer, unassigned) [Example 82a, 2-[4,31-Dimethyl-27,27-dioxo-21,26-dioxa-27λ^6-thia-1,14,15,16-tetraazahexacyclo[20.5.3.1^3,70.1^9,130.0^12,160.0^25,29]dotriaconta-3(32),4,6,9(31),10,12,14,22,24,29-decaen-8-yl]-2-methyl-N-(pyridin-3-yl)propanamide] | 635 nM
Cc1ccc2cc1CN1Cc3cc(ccc3OS1(=O)=O)Oc1ccccc1NCCn1nnc3c(C)c(ccc31)C2CC(=O)O (single isomer, unassigned) [Example 70b, [4,36-Dimethyl-32,32-dioxo-26,31-dioxa-32λ^6-thia-1,14,15,16,19-pentaazaheptacyclo[25.5.3.1^3,70.1^9,130.0^12,160.0^20,250.0^30,34]heptatriaconta-3(37),4,6,9(36),10,12,14,20,22,24,27,29,34-tridecaen-8-yl]acetic acid] | > 3160 nM
Cc1ccc2cc1CN1Cc3cc(ccc3OS1(=O)=O)OCc1ccccc1/C=C/n1nnc3c(C)c(ccc31)C2CC(=O)O (single isomer, unassigned) [Example 61a, [(17E)-4,36-dimethyl-32,32-dioxo-26,31-dioxa-32λ^6-thia-1,14,15,16-tetraazaheptacyclo[25.5.3.1^3,70.1^9,130.0^12,160.0^19,240.0^30,34]heptatriaconta-3(37),4,6,9(36),10,12,14,17,19,21,23,27,29,34-tetradecaen-8-yl]acetic acid] | 717 nM
Cc1ccc2cc1CN1Cc3cc(ccc3OS1(=O)=O)OCc1ccccc1/C=C/n1nnc3c(C)c(ccc31)C2CC(=O)O (single isomer, unassigned) [Example 61b, [(17E)-4,36-dimethyl-32,32-dioxo-26,31-dioxa-32λ^6-thia-1,14,15,16-tetraazaheptacyclo[25.5.3.1^3,70.1^9,130.0^12,160.0^19,240.0^30,34]heptatriaconta-3(37),4,6,9(36),10,12,14,17,19,21,23,27,29,34-tetradecaen-8-yl]acetic acid] | > 3160 nM
Cc1ccc2cc1CN1Cc3cc(ccc3OS1(=O)=O)OCc1ccccc1SCCCn1nnc3c(C)c(ccc31)C2CC(=O)O (single isomer, unassigned) [Example 67a, [4,38-Dimethyl-34,34-dioxo-28,33-dioxa-20,34λ^6-dithia-1,14,15,16-tetraazaheptacyclo[27.5.3.1^3,70.1^9,130.0^12,160.0^21,260.0^32,36]nonatriaconta-3(39),4,6,9(38),10,12,14,21,23,25,29,31,36-tridecaen-8-yl]acetic acid] | 554 nM
Cc1ccc2cc1CN1Cc3cc(ccc3OS1(=O)=O)OCCOCCn1nnc3c(C)c(ccc31)C2CC(=O)O (single isomer, unassigned) [Example 78b, [4,32-Dimethyl-28,28-dioxo-19,22,27-trioxa-28λ^6-thia-1,14,15,16-tetraazahexacyclo[21.5.3.1^3,70.1^9,130.0^12,160.0^26,30]tritriaconta-3(33),4,6,9(32),10,12,14,23,25,30-decaen-8-yl]acetic acid] | 873 nM
Cc1ccc2cc1CN1Cc3cc(ccc3OS1(=O)=O)OCc1ccccc1SCCCn1nnc3c(C)c(ccc31)C2CC(=O)O (single isomer, unassigned) [Example 67b, [4,38-Dimethyl-34,34-dioxo-28,33-dioxa-20,34λ^6-dithia-1,14,15,16-tetraazaheptacyclo[27.5.3.1^3,70.1^9,130.0^12,160.0^21,260.0^32,36]nonatriaconta-3(39),4,6,9(38),10,12,14,21,23,25,29,31,36-tridecaen-8-yl]acetic acid] | > 3160 nM
Cc1ccc2cc1CN1Cc3cc(ccc3OS1(=O)=O)OCCCCn1nnc3c(C)c(ccc31)C2C(C)(C)C(=O)O (single isomer, unassigned) [Example 74a, 2-[4,31-Dimethyl-27,27-dioxo-21,26-dioxa-27λ^6-thia-1,14,15,16-tetraazahexacyclo[20.5.3.1^3,70.1^9,130.0^12,160.0^25,29]dotriaconta-3(32),4,6,9(31),10,12,14,22,24,29-decaen-8-yl]-2-methylpropanoic acid] | 6.11 nM
